The supplement of paper PMC10307832

Assays:
Assay in all cases: relative viability (nuclei count vs DMSO), 5 days (fraction); higher = more cells survive
Kobe2602 + Palbociclib = compound: C1=CC(=CC=C1NC(=S)NNC2=C(C=C(C=C2[N+](=O)[O-])C(F)(F)F)[N+](=O)[O-])F [Kobe2602] + CC(=O)c1c(C)c2cnc(Nc3ccc(N4CCNCC4)cn3)nc2n(C2CCCC2)c1=O [Palbociclib] (partner 0.5 µM)
Outline: (§1)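 Relative viability was taken as the ratio of nuclei in treated wells to nuclei in vehicle wells. Lung cancer cell lines in 1536-well plates received compounds by pin tool one day after seeding, either one drug alone or a fixed anchor-drug dose plus five library-drug doses (not always all listed) in √10 steps. Nuclei were counted on 4× images after 5 days of treatment, and values are medians of duplicate plates.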

Kobe2602 + Phenformin = compound: C1=CC(=CC=C1NC(=S)NNC2=C(C=C(C=C2[N+](=O)[O-])C(F)(F)F)[N+](=O)[O-])F [Kobe2602] + N=C(N)NC(=N)NCCc1ccccc1 [Phenformin] (partner 250 µM)
Outline: as §1

[1] = compound: COc1cc2nccc(Oc3ccc(NC(=O)C4(C(=O)Nc5ccc(F)cc5)CC4)cc3)c2cc1OC [Cabozantinib] + C[C@@H](Oc1cc(-c2cnn(C3CCNCC3)c2)cnc1N)c1c(Cl)ccc(F)c1Cl [Crizotinib] (partner 1 µM)
Outline: as §1

Zosuquidar + Bortezomib = compound: O[C@@H](COc1cccc2ncccc12)CN1CCN([C@@H]2c3ccccc3[C@@H]3[C@H](c4ccccc42)C3(F)F)CC1 [Zosuquidar] + CC(C)C[C@H](NC(=O)[C@H](Cc1ccccc1)NC(=O)c1cnccn1)B(O)O [Bortezomib] (partner 0.002 µM)
Outline: as §1

| Cell Line | relative viability (Kobe2602 + Palbociclib; first compound 0.2 µM) | relative viability (Kobe2602 + Palbociclib; first compound 0.6325 µM) | relative viability (Kobe2602 + Palbociclib; first compound 2 µM) | relative viability (Kobe2602 + Palbociclib; first compound 6.325 µM) | relative viability (Kobe2602 + Palbociclib; first compound 20 µM) | relative viability (Kobe2602 + Phenformin; first compound 0.2 µM) | relative viability (Kobe2602 + Phenformin; first compound 0.6325 µM) | relative viability (Kobe2602 + Phenformin; first compound 2 µM) | relative viability (Kobe2602 + Phenformin; first compound 6.325 µM) | relative viability (Kobe2602 + Phenformin; first compound 20 µM) | relative viability ([1]; first compound 0.02 µM) | relative viability ([1]; first compound 0.06325 µM) | relative viability ([1]; first compound 0.2 µM) | relative viability ([1]; first compound 0.6325 µM) | relative viability ([1]; first compound 2 µM) | relative viability (Zosuquidar + Bortezomib; first compound 0.01 µM) | relative viability (Zosuquidar + Bortezomib; first compound 0.03162 µM) | relative viability (Zosuquidar + Bortezomib; first compound 0.1 µM) | relative viability (Zosuquidar + Bortezomib; first compound 0.3162 µM) | relative viability (Zosuquidar + Bortezomib; first compound 1 µM) |
| --- | --- | --- | --- | --- | --- | --- | --- | --- | --- | --- | --- | --- | --- | --- | --- | --- | --- | --- | --- | --- |
| HCC-366 | 0.377 | 0.344 | 0.35 | 0.384 | 0.395 | 0.669 | 0.642 | 0.618 | 0.584 | 0.61 | 0.71 | 0.778 | 0.547 | 0.358 | 0.385 | 0.946 | 1.03 | 1.06 | 1.08 | 1.07 |
| HARA | 0.331 | 0.227 | 0.237 | 0.268 | 0.366 | 0.468 | 0.506 | 0.465 | 0.467 | 0.478 | 1.22 | 1.17 | 1.09 | 0.957 | 1.09 | 1.14 | 1.14 | 1.08 | 1.13 | 1.14 |
| NCI-H520 | 0.239 | 0.217 | 0.249 | 0.231 | 0.205 | 0.539 | 0.582 | 0.632 | 0.654 | 0.539 | 1.03 | 0.843 | 0.758 | 0.644 | 0.596 | 0.54 | 0.591 | 0.565 | 0.743 | 0.729 |
| SW 1573 | 0.405 | 0.477 | 0.375 | 0.358 | 0.281 | 0.346 | 0.47 | 0.378 | 0.346 | 0.168 | 0.927 | 0.873 | 0.948 | 0.822 | 0.671 | 0.976 | 0.987 | 1.04 | 1.18 | 1.14 |
| CAL-12T | 0.515 | 0.6 | 0.411 | 0.408 | 0.407 | 0.586 | 0.597 | 0.579 | 0.538 | 0.449 | 0.724 | 0.753 | 0.634 | 0.611 | 0.429 | 0.974 | 1.15 | – | 1.03 | 0.735 |
| COR-L 105 | 0.423 | 0.413 | 0.422 | 0.438 | 0.383 | 0.487 | 0.491 | 0.422 | 0.542 | 0.494 | 0.653 | 1.03 | – | 0.659 | 0.561 | 0.738 | 0.742 | 0.899 | 1.16 | 0.874 |
| NCI-H3122 | 0.184 | 0.169 | 0.194 | 0.201 | 0.212 | 0.425 | 0.402 | 0.378 | 0.394 | 0.364 | 0.272 | 0.301 | 0.271 | 0.297 | 0.309 | 0.942 | 0.93 | 0.979 | 1.04 | 0.996 |
| NCI-H2228 | 0.843 | 0.625 | 0.687 | 0.691 | 0.838 | 0.35 | 0.449 | 0.359 | 0.295 | 0.361 | 0.581 | 0.496 | 0.505 | 0.403 | 0.315 | 1.06 | 1.02 | 0.634 | 1.14 | 1.17 |
| RERF-LC-KJ | 0.994 | 1.02 | 0.992 | 0.939 | 0.728 | 0.437 | 0.413 | 0.395 | 0.413 | 0.377 | 0.868 | 0.895 | 0.917 | 0.802 | 0.855 | 1.17 | 1.16 | 1.17 | 1.18 | 0.992 |
| NCI-H441 | 0.236 | 0.198 | 0.243 | 0.237 | 0.221 | 0.801 | 0.81 | 0.876 | 0.814 | 0.903 | 0.684 | 0.799 | 0.857 | 0.717 | 0.668 | 0.43 | 0.476 | 0.444 | – | 0.641 |
| LCLC-97TM1 | 0.192 | 0.242 | – | 0.218 | 0.194 | 0.44 | 0.428 | 0.434 | 0.39 | 0.42 | – | 0.354 | 0.49 | 0.365 | 0.306 | 0.433 | 0.538 | – | 0.844 | 0.464 |
| NCI-H2087 | 0.202 | 0.258 | 0.21 | 0.297 | 0.237 | 0.437 | 0.47 | 0.462 | 0.471 | 0.438 | 0.95 | 0.831 | 0.75 | 0.871 | 0.99 | 0.849 | 0.701 | 0.94 | 0.923 | 0.85 |
| NCI-H647 | 0.334 | 0.467 | 0.373 | 0.425 | 0.409 | 0.554 | 0.549 | 0.655 | 0.481 | 0.441 | 1.23 | 1.58 | 1.05 | 1.07 | 0.877 | 1.01 | 0.882 | 1.27 | 1.1 | 0.996 |
| LCLC-103H | 0.504 | 0.518 | 0.537 | 0.539 | 0.491 | 0.359 | 0.381 | 0.32 | 0.343 | 0.351 | 1 | 1.09 | 1.09 | 1.02 | 1.04 | 1.02 | 1.03 | 0.836 | 1.23 | 0.926 |
| HCC-15 | 0.698 | 0.72 | 0.662 | 0.547 | 0.618 | 0.482 | 0.494 | 0.443 | 0.43 | 0.363 | 0.877 | 0.956 | 0.828 | 0.873 | 0.811 | 0.925 | 0.998 | 0.956 | 0.995 | 1.04 |
| H3255 | 0.336 | 0.337 | 0.333 | 0.273 | 0.303 | 0.339 | 0.359 | 0.422 | 0.315 | 0.334 | 0.922 | 0.927 | – | 0.974 | 0.931 | 0.788 | 0.871 | 0.661 | 0.798 | 0.569 |
| NCI-H1915 | 0.512 | 0.558 | 0.578 | 0.536 | 0.57 | 0.366 | 0.38 | 0.37 | 0.366 | 0.361 | 0.923 | 0.904 | 0.888 | 0.896 | 0.996 | 1 | 0.995 | 1 | 1.01 | 1 |
| NCI-H1650 | 0.36 | 0.35 | 0.365 | 0.366 | 0.261 | 0.483 | 0.57 | 0.395 | 0.388 | 0.366 | 1.02 | 1.23 | 0.911 | 1.04 | 0.911 | 0.227 | 0.226 | 0.206 | 0.219 | 0.222 |
| NCI-H661 | 0.405 | 0.416 | 0.428 | 0.414 | 0.475 | 0.273 | 0.277 | 0.261 | 0.298 | 0.298 | – | 0.991 | 1.13 | 0.918 | 1.03 | 0.875 | 0.702 | 0.628 | 1.12 | 0.949 |
| NCI-H2126 | 0.379 | 0.357 | 0.343 | 0.346 | 0.35 | 0.552 | 0.53 | 0.521 | 0.513 | 0.494 | 1.03 | 1.04 | 1.01 | 1.04 | 1.02 | 1.12 | 1.04 | 1.01 | 1.19 | 1.09 |
| PC-14 | 0.502 | 0.51 | 0.539 | 0.455 | 0.32 | 0.59 | 0.804 | 0.558 | 0.699 | 0.592 | 0.983 | 0.911 | – | 0.894 | 0.788 | 0.846 | 0.992 | 0.782 | 0.984 | 0.78 |
| EMC-BAC-2 | 0.522 | 0.543 | 0.494 | 0.566 | 0.525 | 0.575 | 0.591 | 0.508 | 0.538 | 0.553 | 0.841 | 0.779 | 0.781 | 0.817 | 0.827 | 1.02 | 1.07 | 1.02 | 1.22 | 1.09 |
| NCI-H1437 | 0.308 | 0.306 | 0.299 | 0.337 | 0.257 | 0.335 | 0.282 | 0.279 | 0.297 | 0.352 | 1.02 | 1 | 0.955 | 0.976 | 0.792 | 0.468 | 0.442 | 0.475 | 0.53 | 0.463 |
| NCI-H2405 | 0.52 | 0.572 | 0.537 | 0.553 | 0.528 | 0.418 | 0.431 | 0.411 | 0.393 | 0.452 | 0.933 | 0.862 | 0.872 | 0.873 | 0.895 | 0.931 | 0.974 | 0.861 | 1.02 | 0.959 |
| NCI-H1666 | 0.644 | 0.628 | 0.596 | 0.647 | 0.619 | 0.594 | 0.572 | 0.534 | 0.581 | 0.573 | 0.965 | 1 | 1.05 | 1.1 | 1.08 | 1 | 0.905 | 0.714 | 1.15 | 0.798 |
| NCI-H1993 | 0.679 | 0.543 | 0.48 | 0.589 | 0.525 | 0.51 | 0.453 | 0.503 | 0.501 | 0.515 | 0.798 | 1.04 | 0.682 | 0.856 | 0.884 | 1.02 | 0.99 | 1.08 | 1.17 | 1.11 |
| COR-L23 | 0.31 | 0.296 | 0.275 | 0.318 | 0.333 | 0.469 | 0.453 | 0.427 | 0.463 | 0.422 | 0.73 | 0.791 | 0.716 | 0.621 | 0.544 | 0.925 | 0.969 | 0.893 | 0.877 | 1.08 |
